# Measured values reported in article PMC2228615 (The Journal of General Physiology, 1980).
# Read-outs that look alike come from different tables or passages of the source.
# Experiments:
# ox-brain Na+,K+-ATPase = settings: cited from earlier work
# Na+,K+-dependent ATPase = type: binding, turkey; settings: 150 mM Na+; for t1/2, observed half-time for disappearance of empty binding sites: 0.11-[…] K+, 37 C (Table I)
# human erythrocytes = settings: similar conditions, estimated; cited from earlier work
Compound,"activation energy for association (k1) (ox-brain Na+,K+-ATPase; Na+,K+-ATPase from ox-brain cortex microsomes)","activation energy for association (Arrhenius plot of k1) (Na+,K+-dependent ATPase; 5-37 C)","activation energy for dissociation (Arrhenius plot of k-1) (Na+,K+-dependent ATPase; 5-37 C)","time to attain equilibrium between free and bound radioligand (Na+,K+-dependent ATPase; 20 C or higher, 0.5 mM K+, 0.85 uM [3H]ouabain (Fig. 1))","k-1, dissociation rate constant (Na+,K+-dependent ATPase; 37 C, 0.5 mM K+, after 1 mM nonradioactive ouabain (Fig. 2))","t1/2, observed half-time for disappearance of empty binding sites (Na+,K+-dependent ATPase; [3H]ouabain 1.7x10-7 M)","t1/2, observed half-time for disappearance of empty binding sites (Na+,K+-dependent ATPase; [3H]ouabain 3.2x10-7 M)","t1/2, observed half-time for disappearance of empty binding sites (Na+,K+-dependent ATPase; [3H]ouabain 8.1x10-7 M)","t1/2, observed half-time for disappearance of empty binding sites (Na+,K+-dependent ATPase; [3H]ouabain 8.1x10-8 M)","k-1, dissociation rate constant (human erythrocytes)","Kd (ox-brain Na+,K+-ATPase; read-out: D, dissociation constant for the potassium ion-ATPase complex, partially purified ox-brain ATPase, 150 mM Na+)"
C[C@@H]1O[C@@H](O[C@H]2C[C@@H](O)[C@]3(CO)[C@H]4[C@H](O)C[C@]5(C)[C@@H](C6=CC(=O)OC6)CC[C@]5(O)[C@@H]4CC[C@]3(O)C2)[C@H](O)[C@H](O)[C@H]1O [ouabain],21 to 23 kcal/mol,29.5 kcal/mol,24.2 kcal/mol,≤ 15 min,0.16 min⁻¹,2.2 min,1.2 min,0.49 min,5.1 min,~ 0.001 min-1,
[K+] [potassium ion],,,,,,,,,,,2200 µM
